Experimental data from a melting point compilation (Tetko et al.; mined from patent text by program, amines drawn as free bases though some values may be those of a salt).

Row | melting point [°C] | Compound
1 | 90 to 92 | NC1=CC=C(c2ccccc2)CC1(Cl)C(O)(C1CC1)C1CC1 (centres undefined)
2 | 93 to 96 | CC(C)(C)S(=O)(=O)N1C[C@H](O)C[C@@H]1c1cc(F)cc(C#N)c1
3 | 75 to 85 | CN(CCCNc1ncc(Cc2ccccc2)c(=O)[nH]1)c1ccccn1
4 | 238 to 240 | Cn1cc(C2=C(c3c4n(c5ccccc35)CCC(CNC(=O)OC(C)(C)C)C4)C(=O)N(O)C2=O)c2ccccc21 (centres undefined)
5 | 171 to 172 | Cc1cc(N2N=CCNC2=O)cc(Cl)c1C(=O)c1ccc(Cl)cc1
6 | 220 | CC(C)c1nc(CO)n(Cc2ccc(=O)[nH]c2)c1Sc1cc(Cl)cc(Cl)c1
7 | 63 to 65 | CCCCCC(O)CCN1C(=O)NC(=O)C1CCCCCCC(=O)O (centres undefined)
8 | 124 to 126 | O=[S@@]1CCCC[C@@H]1c1cccnc1
9 | 146 to 148 | NNc1ncccc1Br
10 | 217 to 218 | CC(=O)N(c1ccc(O)cc1)N1CCCCC1
11 | 148 | O=C(Nc1ccccc1)O[C@@H]1CN=C(c2ccc([N+](=O)[O-])cc2)O[C@H]1c1ccccc1 (racemic)
12 | 64 to 73 | COCCc1ccsc1S(N)(=O)=O
13 | 161 to 162 | O=[N+]([O-])c1cnc2ccc(F)cc2c1Nc1ccccc1F
14 | 182 | CC(C)c1ccc(NC(=O)N2CCc3cc(S(=O)(=O)N4CCN(c5cccc(Cl)c5)CC4)ccc32)cc1
15 | 142 to 144 | O=C(O)CCC/C=C/c1ccc2ccccc2n1
16 | > 250 | c1cc(-c2cnc(-c3cccc(-c4cnco4)n3)o2)cc(-c2cnc(-c3cccc(-c4cnco4)n3)o2)c1
17 | 127 to 129 | O=S1NC(Cc2cc3ccccc3s2)=NO1 (centres undefined)
18 | 160 to 161 | Cn1cc(-c2cccc(Cl)c2)c(=O)c(-c2ccccc2Cl)c1
19 | 182 to 184 | O=C(O)CCCNC(=O)c1ccccc1NC(=O)c1ccc(Cl)cc1
20 | 43 to 45 | CC(C)CCc1c(C(C)C)nc(C(C)C)c(CO)c1-c1ccc(F)cc1
21 | 154 to 155 | CN(C)C(=O)c1nc2ccccc2n(Cc2ccccc2)c1=O
22 | 160 | O=C(NCC1CCN(CC2(C(=O)O)CCCCC2)CC1)N1C(=O)C2(CCCC2)c2ccccc21
23 | 204 to 206 | CNS(=O)(=O)c1ccc(N2CCN(c3ccncc3)CC2)cc1

Row | melting point [°C] | Compound
24 | 166 to 167 | O=C(CCN1CCN(c2cccc(C(F)(F)F)c2)CC1)c1ccc2oc3ccc(C(=O)CCN4CCN(c5cccc(C(F)(F)F)c5)CC4)cc3c(=O)c2c1
25 | 158 to 160 | CCOC(=O)c1nnc2c(sc3nc(C)ccc32)c1OCC
26 | 173 to 174 | O=c1[nH]c2cccc(OCCN3CCc4ccccc4C3)c2[nH]1
27 | 85 to 87 | CC(C)(C)OC(=O)Nc1cc(N)cc(Cl)c1
28 | 123 to 124 | CCOCC(=O)N1Cc2cc(Cl)ccc2CC(C)C1=O (centres undefined)
29 | 104 to 106 | O=C(c1ccccc1)N1CC(OCc2ccccc2)C(OCc2ccccc2)C(OCc2ccccc2)C1CO (centres undefined)
30 | 209 to 210 | Clc1cc2c(cc1Cl)Nc1ccccc1C(NCc1cccnc1)=N2
31 | 121 to 122 | CC1CCCCC1OC(=O)c1cc(NC(=O)c2ccccc2)ccc1Cl (centres undefined)
32 | > 260 | CC(C)[C@H](NC(=O)/C=C/c1nccs1)C(=O)N[C@@H](Cc1ccccc1)[C@@H](O)[C@H](O)[C@H](Cc1ccccc1)NC(=O)[C@@H](NC(=O)/C=C/c1nccs1)C(C)C
33 | 40 to 41 | Clc1cc(Br)cnc1Br
34 | 125 to 127 | CCOc1ccc(OCCCN2CCN(c3ccc(Cl)nn3)CC2)cc1
35 | 197 to 199 | CCn1c2ccccc2c2cc(NC(=S)NNC(C)=O)ccc21
36 | 90 to 92 | CN(C)CC1=NC(O)(CCl)CS1 (centres undefined)
37 | 99 to 101 | OC/C=C/c1ccc(O)c(OCc2ccccc2)c1
38 | 227 to 228 | Nc1ccc(C=Cc2nc3ccccc3nc2C=Cc2ccc(N)cc2)cc1
39 | 204 | Cc1nc2cccc(OCC(C)C)c2c(N)c1C(=O)O
40 | 145 to 146 | NC(=O)c1cc2c(cc1OCC1CCCCC1)OCCC[C@@H]2N
41 | 104 to 106 | Cc1nc2ccccc2n1CCc1ccccc1
42 | 146 to 147 | CCc1cnc(N2CCN(C(=O)c3cccc(Nc4ncnc5ccccc45)c3)CC2)nc1
43 | 215 to 218 | CC(C)(CO)Nc1nc(Nc2cccc(NS(C)(=O)=O)c2)nc2[nH]cnc12
44 | > 182 | CCOc1c(-c2ccc(N(C)C)c(O)c2)c(=O)c1=O
45 | 106 to 108 | CC1CCc2nc(Cl)nc(-c3ccc(F)cc3)c2C1 (centres undefined)
46 | 140 to 146 | CCCCCCCCC(O)CNCCNCC(O)CCCCCCCC (centres undefined)

Row | melting point [°C] | Compound
47 | 65 to 66 | CC(=O)c1cc(Br)no1
48 | 95 to 96 | COC(=O)CCc1oc(-n2ccnc2)nc1-c1ccc(Cl)cc1
49 | 189 to 191 | Cc1nc(-c2ccc(C(F)(F)F)cc2)oc1COc1ccc(CC(=O)O)cc1Cl
50 | 167 to 168 | CCOC(=O)CCCCCc1c(O)c2cccnc2n(-c2ccccc2)c1=O
51 | 173 | CCc1nc2cc(CO)c(Cl)cc2n1-c1ccc(CCOC(=O)NS(=O)(=O)c2ccc(C)cc2)cc1
52 | 71 to 72 | CC1CC2(CC(C)(C)C1=O)OC(C)C(C)O2 (centres undefined)
53 | 181 to 183 | O=C1Cc2ccccc2N1Nc1ccncc1F
54 | 121 to 122 | CNC(=S)C1(c2cccnc2)CCCCC1=CCOc1ccccc1 (centres undefined)
55 | 105 to 108 | CN1CCN(C(=O)CN2CCN(C(=O)c3cc(C(F)(F)F)cc(C(F)(F)F)c3)[C@H](Cc3c[nH]c4ccccc34)C2)CC1
56 | 187 to 190 | CCOC(=O)c1cnc2ccn(-c3ccccc3)n2c1=O
57 | 181 to 182 | NC(=O)c1c(Cl)c(-c2ccccc2)n2c1CN(C(=O)CCC1CCCCC1)CC2
58 | 192 to 193 | CN1CC(=O)c2ccc3ccccc3c2S1(=O)=O
59 | 222 to 224 | O=C(Nc1ccc(N2CC(F)(F)C2)nc1)c1cc2cc(C(F)(F)F)cnc2n1Cc1cccc(F)c1
60 | 100 to 105 | CN(C)N1C(=O)C(=Cc2nc(C(C)(C)C)c(O)c(C(C)(C)C)n2)SC1=S
61 | 90 to 91 | CCC(=O)OCOC(=O)Nc1ccc(Cl)cc1
62 | 90 to 92 | OCCc1nc(NCc2ccccn2)c2c(-c3ccccc3)csc2n1
63 | 160 to 162 | CCCCc1oc2ccccc2c1C(=O)c1ccc2c(Br)c(OCc3nnn[nH]3)ccc2c1
64 | 75 to 76 | CCCCCC(O)CCCN(CCCCCCC(=O)O)C(N)=O (centres undefined)
65 | 178 to 183 | O=C(O)CCc1ccc(Oc2ccc3c(c2)S(=O)(=O)NC2CCCN32)cc1 (centres undefined)
66 | 284 to 286 | COc1cc(OC)c2c(=O)[nH]c(-c3ccc(N4CCC(O)CC4)cc3)nc2n1
67 | 93 to 95 | CC(=O)OCc1nc([N+](=O)[O-])cn1C
68 | > 400 | CC(C)CC(=O)Oc1n[nH]c(=O)c2nc3cc(Cl)ccc3c(O)c12
69 | 151 to 153 | CCCCCCCC(=O)Nc1ccn(C2OC(CO)C(O)C2O)c(=O)n1 (centres undefined)

Row | melting point [°C] | Compound
70 | 172 to 174 | CCOC(=O)C(=O)c1csc(NC(=O)Nc2c(C)cccc2C)n1
71 | 176 to 178 | Cc1nc(N2CCN(Cc3ccc(C#N)cc3)C2=O)sc1C(=O)NCc1ccccc1
72 | 169 to 170 | CCC(=O)NCCc1c(-c2ccccc2)nn2ccc3c(c12)CCO3
73 | 185 | S=C(Nc1ccc(Cl)cc1)NC12CC3CC(CC(C3)C1)C2
74 | 195 to 196 | CN(C)CCNC(=O)Cn1c(-c2ccc(Cl)cc2)nc2cccnc21
75 | 200 to 201 | CN(CCNc1ccc2nc(NC(=O)c3ccc(C(C)(C)C)cc3)cn2n1)C(=O)OC(C)(C)C
76 | 103 to 105 | CCCCCS(=O)(=O)NC(=O)/C=C/c1ccc(OCCCOCCOC)cc1Oc1ncc(C(F)(F)F)cc1Cl
77 | 140 to 141 | CC(C)(C)c1cc(OCCCCCc2nnn[nH]2)cc(C(C)(C)C)c1O
78 | 282 to 285 | Cc1ccc2c(c1)C(c1ccccc1)CC(NC(=O)Nc1cccc(Cl)c1)C(=O)N2CC(=O)NC(C)(C)C (centres undefined)
79 | 81 to 83 | O=C(O)C(Cc1ccccc1)Oc1ccc(-c2ccc(-c3c(Cc4ccccc4)sc4ccccc34)cc2)cc1Br (centres undefined)
80 | 231 | NNC(=O)C1(N)CCN(Cc2ccccc2)CC1
81 | 141 to 142 | Cc1c(C)c(N)c2c(c1C)C(=O)C(C)(C)O2
82 | 125 | C=Cc1ccc2nnn(OS(=O)(=O)c3ccc(Cl)cc3)c2c1
83 | 78 to 80 | CCN(CC)CCCCC(=O)c1ccc2c(c1)Cc1cc(C(=O)CCCCN(CC)CC)ccc1-2
84 | 144 to 148 | COc1ncncc1C1c2ccccc2OCOc2cc(F)ccc21 (centres undefined)
85 | 73 to 74 | Brc1c(OCc2ccccc2)cccc1C1OCCCO1
86 | 93.5 | C[Si](C)(C)c1ccc(-c2nccc3ccccc23)cc1
87 | 242 to 244 | N#Cc1ccc(-c2cc3c(n2-c2ccc(O)c(C(=O)O)c2)CCCC3)cc1
88 | 75 to 78 | CCCc1c(CSc2nnc(SCCCC(=O)O)s2)ccc(C(C)=O)c1O
89 | 229 to 232 | CCOc1ccc(-c2nn(C(C)c3oc4ccccc4c(=O)c3-c3cccc(F)c3)c3ncnc(N)c23)cc1 (centres undefined)
90 | 87 to 89 | CC(=O)SCC(C(=O)NCCc1ccncc1)C(F)(F)F (centres undefined)
91 | 133 to 134 | COc1cc(C(=O)N2CCN(C(=O)C3=Cc4ccc(OC)c(OC)c4CCC3)CC2)cc(OC)c1OC

Row | Compound | melting point [°C]
92 | CC1(C)CCC(C)(C)c2cc(-c3nnc(-c4ccc(C(N)=O)cc4)o3)ccc21 | 272 to 274
93 | Cc1cccc(NC(=O)NC2N=C(c3ccccc3F)c3ccccc3N(CCC3OCCO3)C2=O)c1 (racemic) | 214 to 215
94 | COc1ccnc(CN2C(=O)C(NC(=O)Nc3cccc(C)c3)N=C(c3ccccc3F)c3ccccc32)c1 (centres undefined) | 195 to 200
95 | O=C1c2ccccc2C(O)(c2ccccc2)N1CCCN1CC=C(c2ccccc2)CC1 (centres undefined) | 123
96 | CNC(=O)Oc1ccc(N=C(C)c2ccccc2O)c(C)c1 | 133 to 138
97 | CC(C)(C)c1cc2c(cc1O)C(C)(C)CC2(C)C | 114
98 | Cn1nc(N2CCNCC2)c2ccccc21 | 100 to 102
99 | CN1CC(C(=O)COC(=O)c2ccccc2)CC2c3cccc4[nH]cc(c34)CC21 (centres undefined) | 163 to 165
